In patent publication US11014911B2, “CDK2 inhibitors” (Pfizer Inc., priority 2019, dated 2021):

The compounds below were run against CDK2/Cyclin E1 full length (Homo sapiens (Human), UniProt P24941) (assay: CDK2/Cyclin E1 full length mobility shift assay).
Type: biochemical

| SMILES | Ki [nM] |
| --- | --- |
| Cc1nnc(CC(=O)Nc2cc([C@H]3CC[C@@H](OC(=O)NC4(C)CCC4)C3)[nH]n2)o1 [Example 459, (1R,3S)-3-(3-{[(5-methyl-1,3,4-oxadiazol-2-yl)acetyl]amino}-1H-pyrazol-5-yl)cyclopentyl (1-methylcyclobutyl)carbamate] | 0.32 |
| CC1(NC(=O)O[C@@H]2CC[C@H](c3cc(NC(=O)CC4COc5ccccc54)n[nH]3)C2)CCOC1 (single isomer, unassigned) [Example 492] | 2.39 |
| CCN(C)C(=O)O[C@@H]1CC[C@H](c2cc(NC(=O)Cc3ccno3)n[nH]2)C1 [Example 236, (1R,3S)-3-{3-[(1,2-oxazol-5-ylacetyl)amino]-1H-pyrazol-5-yl}cyclopentyl ethyl(methyl)carbamate] | 3.16 |
| COc1ccc(S(C)(=O)=O)c(CC(=O)Nc2cc([C@H]3CC[C@@H](OC(=O)NCCC(F)(F)F)C3)[nH]n2)c1 [Example 224, (1R,3S)-3-[3-({[5-methoxy-2-(methylsulfonyl)phenyl]acetyl}amino)-1H-pyrazol-5-yl]cyclopentyl (3,3,3-trifluoropropyl)carbamate] | 0.31 |
| CC(C)NC(=O)O[C@@H]1CC[C@H](c2cc(NC(=O)Cc3ccccn3)n[nH]2)C1 [Example 265, (1R,3S)-3-{3-[(pyridin-2-ylacetyl)amino]-1H-pyrazol-5-yl}cyclopentyl propan-2-ylcarbamate] | 1.91 |
| Cc1ncc(CC(=O)Nc2cc([C@@H]3CC[C@H](OC(=O)NC(C)C)C3)[nH]n2)s1 [Example 26] | 0.21 |
| CCCNC(=O)O[C@@H]1CC[C@H](c2cc(NC(=O)Cc3ccccc3S(N)(=O)=O)n[nH]2)C1 [Example 204, (1R,3S)-3-(3-{[(2-sulfamoylphenyl)acetyl]-amino}-1H-pyrazol-5-yl)cyclopentyl propylcarbamate] | 1.13 |
| O=C(Cc1cc(F)cc(F)c1)Nc1cc([C@@H]2CC[C@H](OC(=O)NC[C@@H]3C[C@H]3CO)C2)[nH]n1 [Example 578, (1S,3R)-3-(3-{[(3,5-difluorophenyl)acetyl]amino}-1H-pyrazol-5-yl)cyclopentyl {[(1R,2R)-2-(hydroxymethyl)cyclopropyl]-methyl}carbamate] | 3.64 |
| COc1ncccc1CC(=O)Nc1cc([C@H]2CC[C@@H](OC(=O)NC(C)(C)C)C2)[nH]n1 [Example 307, (1R,3S)-3-(3-{[(2-methoxypyridin-3-yl)acetyl]amino}-1H-pyrazol-5-yl)cyclopentyl tert-butylcarbamate] | 0.73 |
| C[C@H]1CCC[C@H]1NC(=O)O[C@@H]1CC[C@H](c2cc(NC(=O)Cc3ccno3)n[nH]2)C1 [Example 461, (1R,3S)-3-{3-[(1,2-oxazol-5-ylacetyl)amino]-1H-pyrazol-5-yl}cyclopentyl [(1R,2S)-2-methylcyclopentyl]carbamate] | 1.75 |
| CCC(CO)CNC(=O)O[C@@H]1CC[C@H](c2cc(NC(=O)Cc3cc(F)cc(F)c3)n[nH]2)C1 (single isomer, unassigned) [Example 536] | 2.07 |
| COc1ccc(CC(=O)Nc2cc([C@@H]3CC[C@H](OC(=O)N[C@H]4CC[C@@H](O)CC4)C3)[nH]n2)cn1 [Example 553, (1S,3R)-3-(3-{[(6-methoxypyridin-3-yl)acetyl]amino}-1H-pyrazol-5-yl)cyclopentyl (cis-4-hydroxycyclohexyl)carbamate] | 0.41 |
| COC[C@H](C)NC(=O)O[C@@H]1CC[C@H](c2cc(NC(=O)Cc3cnc(C(F)(F)F)cn3)n[nH]2)C1 [Example 523, (1R,3S)-3-[3-({[5-(trifluoromethyl)pyrazin-2-yl]acetyl}amino)-1H-pyrazol-5-yl]cyclopentyl [(2S)-1-methoxypropan-2-yl]carbamate] | 2.49 |
| COc1ccc(CC(=O)Nc2cc([C@H]3CC[C@@H](OC(=O)NC4(C)CCOC4)C3)[nH]n2)cc1 (single isomer, unassigned) [Example 483] | 0.32 |
| COc1cnc(CC(=O)Nc2cc([C@H]3CC[C@@H](OC(=O)NC(C)CC(F)(F)F)C3)[nH]n2)cn1 (single isomer, unassigned) [Example 67] | 1.5 |
| COc1cc(CC(=O)Nc2cc([C@H]3CC[C@@H](OC(=O)N4CCC4C)C3)[nH]n2)ccn1 (single isomer, unassigned) [Example 154] | 1.77 |
| Cc1cnc(CC(=O)Nc2cc([C@H]3CC[C@@H](OC(=O)NC4(C)CCOCC4)C3)[nH]n2)o1 [Example 508, (1R,3S)-3-(3-{[(5-methyl-1,3-oxazol-2-yl)acetyl]amino}-1H-pyrazol-5-yl)cyclopentyl (4-methyltetrahydro-2H-pyran-4-yl)carbamate] | 1.46 |
| CC[C@H](C)NC(=O)O[C@@H]1CC[C@H](c2cc(NC(=O)Cc3cn(C(C)C)nn3)n[nH]2)C1 [Example 350, (1R,3S)-3-[3-({[1-(propan-2-yl)-1H-1,2,3-triazol-4-yl]acetyl}amino)-1H-pyrazol-5-yl]cyclopentyl (2S)-butan-2-ylcarbamate] | 3.45 |

| SMILES | Ki [nM] |
| --- | --- |
| CCNC(=O)O[C@@H]1CC[C@H](c2cc(NC(=O)Cc3ccc(F)cc3)n[nH]2)C1 [Example 228, (1R,3S)-3-(3-{[(4-fluorophenyl)acetyl]amino}-1H-pyrazol-5-yl)cyclopentyl ethylcarbamate] | 1.84 |
| CC(CC(F)(F)F)N(C)C(=O)O[C@@H]1CC[C@H](c2cc(NC(=O)c3cnnn3C)n[nH]2)C1 (single isomer, unassigned) [Example 411] | 2.58 |
| Cc1csc(CC(=O)Nc2cc([C@H]3CC[C@@H](OC(=O)NC(C)C)C3)[nH]n2)n1 [Example 274, (1R,3S)-3-(3-{[(4-methyl-1,3-thiazol-2-yl)acetyl]amino}-1H-pyrazol-5-yl)cyclopentyl propan-2-ylcarbamate] | 2.62 |
| Cc1nc(CC(=O)Nc2cc([C@H]3CC[C@@H](OC(=O)NC(C)(C)C)C3)[nH]n2)cs1 [Example 304, (1R,3S)-3-(3-{[(2-methyl-1,3-thiazol-4-yl)acetyl]amino}-1H-pyrazol-5-yl)cyclopentyl tert-butylcarbamate] | 1.41 |
| COCc1cc(C(=O)Nc2cc([C@H]3CC[C@@H](OC(=O)N4CC[C@@H]4C)C3)[nH]n2)n(C)n1 [Example 595, (1R,3S)-3-[3-({[3-(methoxymethyl)-1-methyl-1H-pyrazol-5-yl]carbonyl}amino)-1H-pyrazol-5-yl]cyclopentyl (2S)-2-methylazetidine-1-carboxylate] | 1.52 |
| O=C(Cc1nccs1)Nc1cc([C@H]2CC[C@@H](OC(=O)NCCC(F)(F)F)C2)[nH]n1 [Example 219, (1R,3S)-3-{3-[(1,3-thiazol-2-ylacetyl)amino]-1H-pyrazol-5-yl}cyclopentyl (3,3,3-trifluoropropyl)carbamate] | 3.81 |
| Cc1cnc(CC(=O)Nc2cc([C@H]3CC[C@@H](OC(=O)N[C@@H](C)C4CC4)C3)[nH]n2)cn1 [Example 470, (1R,3S)-3-(3-{[(5-methylpyrazin-2-yl)acetyl]amino}-1H-pyrazol-5-yl)cyclopentyl [(1S)-1-cyclopropylethyl]carbamate] | 0.83 |
| CC(CC(F)(F)F)NC(=O)O[C@@H]1CC[C@H](c2cc(NC(=O)c3ccnn3CCN(C)C)[nH]n2)C1 (single isomer, unassigned) [Example 409] | 4.15 |
| CC1(NC(=O)O[C@@H]2CC[C@H](c3cc(NC(=O)Cc4ccc(C(F)(F)F)cn4)n[nH]3)C2)CC1 [Example 445, (1R,3S)-3-[3-({[5-(trifluoromethyl)pyridin-2-yl]acetyl}amino)-1H-pyrazol-5-yl]cyclopentyl (1-methylcyclopropyl)carbamate] | 0.6 |
| CC[C@H](C)NC(=O)O[C@@H]1CC[C@H](c2cc(NC(=O)Cc3c(C)noc3C)n[nH]2)C1 [Example 340, (1R,3S)-3-(3-{[(3,5-dimethyl-1,2-oxazol-4-yl)acetyl]amino}-1H-pyrazol-5-yl)cyclopentyl (2S)-butan-2-ylcarbamate] | 2.24 |
| CNC(=O)O[C@@H]1CC[C@H](c2cc(NC(=O)Cc3ccc(OC)nc3)n[nH]2)C1 [Example 256, (1R,3S)-3-(3-{[(6-methoxypyridin-3-yl)acetyl]amino}-1H-pyrazol-5-yl)cyclopentyl methylcarbamate] | 2.58 |
| Cc1cc(CC(=O)Nc2cc([C@H]3CC[C@@H](OC(=O)NC4(C)CC4)C3)[nH]n2)no1 [Example 7, (1R,3S)-3-(3-{[(5-methyl-1,2-oxazol-3-yl)acetyl]amino}-1H-pyrazol-5-yl)cyclopentyl (1-methylcyclopropyl)carbamate] | 0.61 |
| CCC1(NC(=O)O[C@@H]2CC[C@H](c3cc(NC(=O)Cc4cnc(C)cn4)n[nH]3)C2)CC1 [Example 449, (1R,3S)-3-(3-{[(5-methylpyrazin-2-yl)acetyl]amino}-1H-pyrazol-5-yl)cyclopentyl (1-ethylcyclopropyl)carbamate] | 0.39 |
| Cn1ccc(CC(=O)Nc2cc([C@H]3CC[C@@H](OC(=O)NC4(C)CC4)C3)[nH]n2)n1 [Example 421, (1R,3S)-3-(3-{[(1-methyl-1H-pyrazol-3-yl)acetyl]amino}-1H-pyrazol-5-yl)cyclopentyl (1-methylcyclopropyl)carbamate] | 0.94 |
| Cc1cc(CC(=O)Nc2cc([C@H]3CC[C@@H](OC(=O)N[C@@H](C)C4CC4)C3)[nH]n2)on1 [Example 468, (1R,3S)-3-(3-{[(3-methyl-1,2-oxazol-5-yl)acetyl]amino}-1H-pyrazol-5-yl)cyclopentyl [(1S)-1-cyclopropylethyl]carbamate] | 0.35 |
| COCc1cc(C(=O)Nc2cc([C@H]3CC[C@@H](OC(=O)N[C@@H](C)COC)C3)n[nH]2)n(C)n1 [Example 521, (1R,3S)-3-[5-({[3-(methoxymethyl)-1-methyl-1H-pyrazol-5-yl]carbonyl}amino)-1H-pyrazol-3-yl]cyclopentyl [(2S)-1-methoxypropan-2-yl]carbamate] | 1.95 |
| Cc1cnc(CC(=O)Nc2cc([C@H]3CC[C@@H](OC(=O)NC(C)C)C3)[nH]n2)s1 [Example 273, (1R,3S)-3-(3-{[(5-methyl-1,3-thiazol-2-yl)acetyl]amino}-1H-pyrazol-5-yl)cyclopentyl propan-2-ylcarbamate] | 3.08 |
| COc1cnc(CC(=O)Nc2cc([C@H]3CC[C@@H](OC(=O)NC(C)C)C3)[nH]n2)cn1 [Example 277, (1R,3S)-3-(3-{[(5-methoxypyrazin-2-yl)acetyl]amino}-1H-pyrazol-5-yl)cyclopentyl propan-2-ylcarbamate] | 0.98 |
